Experimental data as given in US11547685B2, “Using probenecid to treat polycystic kidney disease” (Mayo Foundation for Medical Education and Research, priority 2017, dated 2023).
“And” between values parts separate entries of the source, which are not always exact repeats. Equal entries are not always repeated. “Also recorded” adds a separate entry of the source.

Key:
[1] = system: mIMCD3 cells; assay: Proliferation assay (Incucyte confluence); format: cell-based, mouse; conditions: 7 days
Description: FIG. 5. Probenecid inhibits proliferation in mICMD3 cells. mIMCD3 cells were grown in 96 wells plate (2500 […]) for 7 days and imaged every 4 hours in an incubator-based imaging system (Incucyte). Confluence was measured at each time point. Cells were treated with defined medium (control), forskolin (FSK) 10 μM, or probenecid (PB) 500 μM and 1000 μM. Control and forskolin (FSK 10 μM) groups reached confluence faster when compared to probenecid alone or probenecid with forskolin. […] Cells were seeded in 96 wells plate (2500 cells/well) and grown for 7 days. Images were taken by an incubator-based microscope (Incucyte) every 4 hours and analyzed for confluence. Probenecid inhibited proliferation in a dose dependent manner. Cells were grown and imaged for 7 days in an incubator-based imaging system (IncuCyte) and analyzed for confluence.

[2] = system: mIMCD3 cells; assay: cAMP ELISA assay; format: cell-based, mouse
Description: FIG. 4. Probenecid enhances the intracellular accumulation of cAMP generated in response to forskolin. Wild type mIMCD3 cells were grown in 6 wells plate to confluence for at least 5 days then treated with either forskolin (10 μM) alone, probenecid alone (500 μM; PB 500), or forskolin (FSK) with probenecid (100 μM, PB100; 250 μM, PB250; and 500 μM, PB500). cAMP was measured by ELISA assay (pmol/mg of protein). […] Cells were grown in 6-wells culture dishes and incubated for at least 5 days post confluence. Cells were collected then homogenized in 0.1 M HCl. The protein concentration was measured by using BCA Protein Assay Kit. After centrifugation, the supernatant was further diluted in 0.1 M HCl. cAMP content was assessed by enzyme-linked immunosorbent assay. The results were expressed in picomoles per milligram of protein. Probenecid inhibited MRP1 mediated efflux of cAMP.

[3] = system: mIMCD3 cells; assay: Three dimensional (3D) cystogenesis assay, forskolin-induced; format: cell-based, mouse; conditions: for reduction in cyst size: 5 days
Description: FIG. 2. Probenecid reduces forskolin-induced cystogenesis. mIMCD3 cells were grown in 3D matrigel-based extracellular matrix system and incubated with defined medium (control)+/−forskolin (10 μM) and probenecid (500 μM and 1000 μM) for 5 days. Cysts were imaged using an inverted phase microscope, and cyst size was quantified by measuring cyst diameter using Image J software and reported as cyst surface area (μm^2). Forskolin induced cystogenesis in wild type. […] FIG. 3. Probenecid reduces forskolin induced in vitro cystogenesis. As described in FIG. 3, cells were grown in matrigel based system for 5 days. All four groups shown were stimulated with 10 μM of forskolin. Different doses of probenecid were compared. A dose effect was seen as higher dose of probenecid were more efficacious in reducing cyst growth when stimulated with forskolin. […] 3D matrix was prepared by mixing 1:1 matrigel with defined medium (DMEM, 25 μg/L EGF, 5 μg/mL insulin, 5 μg/mL transferrin, 5 ng/mL selenium, penicillin, streptomycin, 5×10^−12 M triiodothyronine, and 5×10^−8 M hydrocortisone). Cells were mixed with the extracellular matrix and grown in 96-wells plate (8000-10000 cells per well). The desired drug concentration (forskolin 10 μM, probenecid 500-1000 μM) was added to the medium and changed on a daily basis. Images of the wells were taken daily by an inverted phase contrast microscope. Images from day 5 were analyzed using Image J software. Cyst surface was calculated using cyst diameter. mIMCD3 cells were grown in three dimensional matrix-based extracellular matrix. When stimulated with forskolin, these cells grew to form multiple cysts. […] The cyst reduction may be due to inhibition of cell proliferation, inhibition of chloride driven fluid secretion, or both.

[4] = system: Pkd1^RC/RC PKD mouse model; assay: PKD mouse model Pkd1RC/RC, kidney weight/body weight; format: in vivo; conditions: Pkd1^RC/RC mice, 0.03 mg in 100 mg of chow, treated from age 4 weeks to 12 weeks
Description: The PKD mouse model, Pkd1^RC/RC, was used in this experiment. Probenecid (0.03 mg in 100 mg of chow), tolvaptan (0.03 mg in 100 mg of chow), or the combination of tolvaptan and probenecid were mixed with the food. […] The treatment started from age 4 weeks to 12 weeks. Mice were sacrificed, and the kidney weight (KW) was measured then standardized to body weight (BW). KW/BW ratio was an established method to report an effect of therapy in ADPKD mouse models.

[5] = system: embryonic kidneys; assay: Forskolin-induced cystogenesis in cultured embryonic kidneys; conditions: E13.5 kidneys, forskolin-stimulated, probenecid 500 μM, day 5
Description: FIG. 6 contains photographs showing that probenecid (500 μM) dramatically reduces cystogenesis in embryonic kidneys. Embryonic kidneys were harvested at E13.5 (embryos were 13-14 days old in utero). These kidneys were harvested and cultured on filters and stimulated with forskolin to induce cysts.

[6] = system: mIMCD3 cells; assay: Time-lapse imaging of cytoplasmic calcium with Gcamp6s biosensor; format: cell-based, mouse; conditions: probenecid 1000 μM, mIMCD3 cells stably transfected with Gcamps6s
Description: FIG. 1B. Probenecid increases intracytoplasmic calcium in mouse inner medullary collecting duct cells (mIMCD3). mIMCD3 cells were stably transfected with […] (cytoplasmic calcium genetically encoded biosensor) and grown on 35 mm glass bottom dish for at least 5 days post confluence then imaged under confocal microscopy every 3 seconds. Probenecid (1000 μM) was added to the medium at 10.5 minutes as noted by the blue bar. Fluorescence changes of a region of interest (ROI) in each cell are analyzed in Zen software and reported as a ratio of fluorescence over baseline fluorescence of each ROI (F/F0). An increase in F/F0 indicates relative increase in cytoplasmic calcium. Probenecid increased cytoplasmic calcium by 4-6 folds compared to baseline calcium. Two representative images at baseline and at peak increase of cytoplasmic calcium are shown. Mouse inner medullary collecting duct immortalized cell lines were used (mIMCD3): wild type (WT) or with a knockout of Pkd1 (Pkd^1-/-) or Pkd2 (Pkd^2-/-). WT cells were transfected with GCamp6s by electroporation (Bio Rad Gene pulser Xcell). […] Time lapses (every 3 seconds) were captured on Zeiss confocal microscope (LSM-780) and analyzed on Zeiss Zen Pro software. […] Fluorescence changes of a region of interest (ROI) in each cell were analyzed in Zen software and reported as a ratio of fluorescence over baseline fluorescence of each ROI (F/F0). […]

Compound | proliferation (confluence) ([1]; Pkd2 null mIMCD3, probenecid 1000 μM alone) | proliferation (confluence) ([1]; wild type mIMCD3, probenecid 500 and 1000 μM) | intracellular cAMP, probenecid combined with forskolin versus forskolin alone ([2]; wild type mIMCD3, forskolin 10 μM plus probenecid 100, 250, 500 μM) | intracellular cAMP, probenecid alone ([2]; wild type mIMCD3, probenecid 500 μM, no forskolin) | reduction in cyst size ([3]; probenecid 500 μM with forskolin 10 μM) [%] | reduction in cyst size ([3]; probenecid 1000 μM with forskolin 10 μM) [%] | reduction of cystic burden in 3D in vitro cystogenesis assay ([3]; summary statement) | cystogenesis with probenecid alone ([3]; without forskolin) | mean KW/BW ratio [4] | cyst formation in embryonic kidney culture [5] | increase in cytoplasmic calcium (F/F0) compared to baseline calcium [6]
CCCN(CCC)S(=O)(=O)c1ccc(C(=O)O)cc1 [probenecid, 4-(dipropyl-sulfamoyl) benzoic acid] | most completely inhibited proliferation | significantly inhibited proliferation | increased cAMP levels in a dose dependent fashion | did not increase cAMP | 68.4 | 82.6 | more than 80% | did not induce any cystogenesis | 2.56% (±0.42) | significantly inhibited; also recorded: almost completely prevents cyst formation | 4-6 fold and 4- to 6 fold
Cc1ccccc1C(=O)Nc1ccc(C(=O)N2CCCC(O)c3cc(Cl)ccc32)c(C)c1 (stereo not drawn) [tolvaptan] | – | – | – | – | – | – | – | – | 2.07% (±0.42) | – | –
